Assay results: patent publication US12527808B2, “Compounds useful to treat pain” (Amneal Pharmaceuticals LLC, priority 2019, dated 2026)

How the values were obtained:
Bradykinin B1 Receptor = molecular target: T1, Bradykinin B1 Receptor (Homo sapiens, UniProt P46663); experiment: Radioligand binding assay for bradykinin B1 receptor
T1 construct: purchased; host or cells: transiently transfected CHO-K1 cells (membranes)
T1 sequence (P46663 1-353): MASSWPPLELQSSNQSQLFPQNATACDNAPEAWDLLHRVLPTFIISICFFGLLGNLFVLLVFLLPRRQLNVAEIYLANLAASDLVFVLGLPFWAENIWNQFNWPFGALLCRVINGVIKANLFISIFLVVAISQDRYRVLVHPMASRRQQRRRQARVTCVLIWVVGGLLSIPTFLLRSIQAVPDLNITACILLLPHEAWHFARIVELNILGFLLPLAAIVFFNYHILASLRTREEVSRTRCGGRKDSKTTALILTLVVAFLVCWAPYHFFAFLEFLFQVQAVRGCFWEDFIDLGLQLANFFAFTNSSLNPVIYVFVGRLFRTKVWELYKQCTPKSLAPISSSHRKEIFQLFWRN
Procedure: (§1) Example 10: Radioligand Binding Assay for Bradykinin B1 and B2 Receptor
(§2) Bradykinin receptor membrane (B1 & B2) was procured from commercial source. Competitive radioligand binding assay was done by filtration-based technique using membranes prepared from transiently transfected Chinese hamster ovary (CHO)—K1 cells. Briefly, different concentrations of Phenazopyridine (compound I-A) was added to 96 wells plate containing bradykinin membrane along with required controls. The assay plate was harvested onto a GF/B Unifier harvester plate and washed with cold wash buffer. Plate was dried in oven for 15 mins at 60° C. The membrane activity was analyzed based on the readout using MicroBeta from Perkin Elmer in Counts Per Minute (CPM). Percent inhibition of Bradykinin receptor activity was calculated at each concentration and summarized in the results.

Bradykinin B2 Receptor = molecular target: T2, Bradykinin B2 Receptor (Homo sapiens, UniProt P30411); experiment: Radioligand binding assay for bradykinin B2 receptor
T2 construct: purchased; host or cells: transiently transfected CHO-K1 cells (membranes)
T2 sequence (P30411 1-391): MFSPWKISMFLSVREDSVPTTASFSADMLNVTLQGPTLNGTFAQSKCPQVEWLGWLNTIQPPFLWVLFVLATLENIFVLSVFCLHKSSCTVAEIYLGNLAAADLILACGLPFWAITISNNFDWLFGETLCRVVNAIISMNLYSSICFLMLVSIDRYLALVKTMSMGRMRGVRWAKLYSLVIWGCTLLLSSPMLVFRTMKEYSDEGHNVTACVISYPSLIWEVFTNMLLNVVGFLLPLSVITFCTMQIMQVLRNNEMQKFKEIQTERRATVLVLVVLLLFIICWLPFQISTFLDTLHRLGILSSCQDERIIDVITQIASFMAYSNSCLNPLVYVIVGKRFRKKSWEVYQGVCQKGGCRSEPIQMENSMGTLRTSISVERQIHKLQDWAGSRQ
Procedure: as §1, §2

inhibition at 1 µM (Bradykinin B1 Receptor; 1.00 μM): 12%
inhibition at 10.01 µM (Bradykinin B1 Receptor; 10.01 μM): 49%
inhibition at 100 µM (Bradykinin B1 Receptor; 100.00 μM): 81%
inhibition at 0.03 µM (Bradykinin B2 Receptor; 0.03 μM): 6%
inhibition at 0.1 µM (Bradykinin B2 Receptor; 0.10 μM): 13%
inhibition at 0.32 µM (Bradykinin B2 Receptor; 0.32 μM): 10%
inhibition at 1 µM (Bradykinin B2 Receptor; 1.00 μM): 37%
inhibition at 3.17 µM (Bradykinin B2 Receptor; 3.17 μM): 38%
inhibition at 10.01 µM (Bradykinin B2 Receptor; 10.01 μM): 59%
inhibition at 31.65 µM (Bradykinin B2 Receptor; 31.65 μM): 78%
inhibition at 100 µM (Bradykinin B2 Receptor; 100.00 μM): 98%
Structure (SMILES): Nc1ccc(/N=N/c2ccccc2)c(N)n1 [Phenazopyridine]
